Drawing on PMC8161536, “Structure-tuned membrane active Ir-complexed oligoarginine overcomes cancer cell drug resistance and triggers immune responses in mice” (Chemical Science, 2020), this text covers IC50 for eight molecules.

Holding throughout (format): cell-based
One assay has as its system A549/DDP. As to the kind of experiment: MTT cytotoxicity, cisplatin-resistant A549/DDP. The following applies: Ir-cR8 24 h, cisplatin 48 h, unit inferred, test concentrations in μM, read-out: Antiproliferative activity (IC50) A549/DDP. On the procedure:
(Waters Corp., USA) The gradient mobile phase consisted of acetonitrile (A) and H2O (B) both containing […] A typical 15 min sample run consisted of 2 min of 20% solvent A and 80% solvent B followed by an increment of solvent A up to 23% for the remaining 2 min. Then the proportion of solvent A was increased to 45% in the following 8 min and decreased to 20% in the last 3 min. The analytes were monitored by a photo diode array (PDA) detector set at 220 nm and 254 nm and the flow rate was set to 0.3 mL min-1. The separated metallopeptides were collected to lyophilized and quantified by ICP-MASS, then for MTT assay. Circular dichroism assay of Ir-peptides […] The collected Ir- peptides were lyophilized and quantified by ICP-MASS. The Ir-peptides, isomers, mixture of two isomers were diluted to same concentration for circular dichroism test. (Chirascan-plus, Applied photophysics) LogP assay Water and octanol (1:1, v/v) were saturated for 24 h at room temperature and separated as aqueous phase and oil phase. Ir- […] […] CCK-8 of 20 μL was added in each well and incubated for 4 h, then the absorbance at 450 nm of each well was obtained by microplate spectrophotometer to calculate the cell viability. […] The absorbance […]

The subject of a further assay is HL60. The assay can be described thus: CCK-8 cytotoxicity, HL60. The following applies: Homo sapiens, HL-60; read-out: Antiproliferative activity (IC50) HL60.
The next assay has as its system HL60/Ara-C. The assay can be described thus: CCK-8 cytotoxicity, cytarabine-resistant HL60/Ara-C. The following applies: Homo sapiens, HL-60; read-out: Antiproliferative activity (IC50) HL60/Ara-C.
For another assay, the system named is HL60/ADR. As to the kind of experiment: CCK-8 cytotoxicity, doxorubicin-resistant HL60/ADR. The settings on record: Homo sapiens, read-out: Antiproliferative activity (IC50) HL60/ADR.
Another assay has as its system A549/Taxol. As to the kind of experiment: MTT cytotoxicity, paclitaxel-resistant A549/Taxol. The settings on record: read-out: Antiproliferative activity (IC50) A549/Taxol. As to the method: mm × 2.1 mm column. (Waters Corp., USA) The gradient mobile phase consisted of acetonitrile (A) and H2O (B) both containing
0.1% trifluoroacetic acid. A typical 15 min sample run consisted of 2 min of 20% solvent A and 80% solvent B followed by an
increment of solvent A up to 23% for the remaining 2 min. Then the proportion of solvent A was increased to 45% in the
following 8 min and decreased to 20% in the last 3 min. The analytes were monitored by a photo diode array (PDA) detector
set at 220 nm and 254 nm and the flow rate was set to 0.3 mL min-1. The separated metallopeptides were collected to
lyophilized and quantified by ICP-MASS, then for MTT assay.
Circular dichroism assay of Ir-peptides
peptides were lyophilized and quantified by ICP-MASS. The Ir-peptides, isomers, mixture of two isomers were diluted to same
concentration for circular dichroism test. (Chirascan-plus, Applied photophysics)
Water and octanol (1:1, v/v) were saturated for 24 h at room temperature and separated as aqueous phase and oil phase. Ir- […]
the standard curves by fluorescence spectrophotometer, Ex Slit:5.0 nm, Em Slit:5.0 nm, 650 V. Then the aqueous phase’s
fluorescence intensities in samples containing both oil and aqueous phases were scanned, the concentration in aqueous phase
of each Ir-peptide was calculated by standard curve, the Ir-peptide’s initial concentration in aqueous phase minus 24 hour’s […]

In the next assay the test system is HeLa cells. The settings on record: 24 h. As to the method:
(Waters Corp., USA) The gradient mobile phase consisted of acetonitrile (A) and H2O (B) both containing […] A typical 15 min sample run consisted of 2 min of 20% solvent A and 80% solvent B followed by an increment of solvent A up to 23% for the remaining 2 min. Then the proportion of solvent A was increased to 45% in the following 8 min and decreased to 20% in the last 3 min. The analytes were monitored by a photo diode array (PDA) detector set at 220 nm and 254 nm and the flow rate was set to 0.3 mL min-1. The separated metallopeptides were collected to lyophilized and quantified by ICP-MASS, then for MTT assay. Circular dichroism assay of Ir-peptides […] The collected Ir- peptides were lyophilized and quantified by ICP-MASS. The Ir-peptides, isomers, mixture of two isomers were diluted to same concentration for circular dichroism test. (Chirascan-plus, Applied photophysics) LogP assay Water and octanol (1:1, v/v) were saturated for 24 h at room temperature and separated as aqueous phase and oil phase. Ir- […] Samples were stirred for 24 h at room […] the standard curves by fluorescence spectrophotometer, Ex Slit:5.0 nm, Em Slit:5.0 nm, 650 V. Then the aqueous phase's fluorescence intensities in samples containing both oil and aqueous phases were scanned, the concentration in aqueous phase of each Ir-peptide was calculated by standard curve, the Ir-peptide's initial concentration in aqueous phase minus 24 hour's concentration in aqueous phase to obtain the 24 hour's concentration in oil phase, logP=log(c oil/caqueous). Cell culture […] cells were incubated in RPMI 1640 medium with 10% fetal bovine serum, 37 °C, 5%CO2. […] Pharmacology Department, College of Pharmaceutical Sciences, Soochow University. […] obtained from Institute of Hematology and Blood Diseases Hospital, Chinese Academy of Medical Sciences & Peking Union Medical College. Induction of cisplatin resistant A549/DDP cells […] entering the logarithmic growth period. Then the medium was replaced by DMEM medium containing 10% fetal bovine serum and 0.125 μM cisplatin. The cells were incubated with cisplatin for 24 h and the medium was removed and no cisplatin DMEM […] The induction followed this […] The concentration of cisplatin was twice as much as before in each induction. Then the cells were incubated with DMEM containing 10% fetal bovine serum and 4 μM cisplatin for two months and medium containing cisplatin was replaced by no-cisplatin medium two weeks before experiment. Cytotoxicity HeLa cells were cultured in 96-well microplates, 8*10^3 cells per well overnight. […] CCK-8 of 20 μL was added in each well and incubated for 4 h, then the absorbance at 450 nm of each well was obtained by microplate spectrophotometer to calculate the cell viability. […] The absorbance […]

For `N.N.[Cl][Pt][Cl]` [Cisplatin, cisplatin], the IC50 in the assay on A549/DDP was over 128 µM.
As to `Nc1ccn([C@@H]2O[C@H](CO)[C@@H](O)[C@@H]2O)c(=O)n1` [Cytarabine, cytarabine], the figures for the IC50 in the assay with HL60 and with HL60/Ara-C were 0.07 ± 0.003 µM and over 128 µM, respectively.
Regarding `COc1cccc2c1C(=O)c1c(O)c3c(c(O)c1C2=O)C[C@@](O)(C(=O)CO)C[C@@H]3O[C@H]1C[C@H](N)[C@H](O)[C@H](C)O1` [Doxorubicin, doxorubicin], the IC50 in the assay on HL60 was 0.13 ± 0.06 µM; in the assay with HL60/ADR, 8.3 ± 0.2 µM.
On to `CC(=O)O[C@H]1C(=O)[C@@]2(C)[C@H]([C@H](OC(=O)c3ccccc3)[C@]3(O)C[C@H](OC(=O)[C@H](O)[C@@H](NC(=O)c4ccccc4)c4ccccc4)C(C)=C1C3(C)C)[C@]1(OC(C)=O)CO[C@@H]1C[C@@H]2O` [Paclitaxel, paclitaxel], for which, in the assay on A549/Taxol, the IC50 came out at 25.8 ± 0.5 µM.
Ac-HHRRR-NH2 [aR3]: the IC50 with HeLa cells is over 100 µM.
On the same count and under the same terms, then Ac-HHRRRR-NH2 [aR4], with over 100 µM; and Ac-HRRRH-NH2 [cR3], with over 100 µM.
For Ac-HRRRRH-NH2 [cR4], the IC50 in the assay on HeLa cells is over 100 µM.
